{"source": "patent US12673921B2", "about": "“Substituted fluorine-containing imidazole salt compound, preparation method therefor, pharmaceutical composition thereof and use thereof” (XIAMEN VIVOHEALTHS TECHNOLOGY CO., LTD., priority 2019, dated 2026)", "key": {"AMPK": {"system": "AMPK", "assay": "AMPK activity assay at cell level (western blot of p-AMPKα and p-ACC in MEFs)", "format": "cell-based, mouse", "conditions": "MEF cells, compound 10 nM, 2 h; multiple of the ratio relative to positive control AICAR (3 mM); band brightness by Image J", "procedure": "The ability of compounds to activate AMPK in mouse embryonic fibroblasts (MEFs) was determined, which could be specifically carried out by detecting the phosphorylation level (p-AMPKα) of threonine at the 172nd position of AMPK and the phosphorylation level (p-ACC) of serine at the 79th position of the susbtrate ACC1/ACC2 of AMPK (FIG. 1 and Table I) by western blot.\nThe specific method was as follows: • (1) MEFs with loxP insertion sequences or of wild-type were plated in a 6-well plate and cultured in DMEM containing 10% serum. If a gene needed to be knocked out at this time, when the density of the corresponding MEFs with loxP insertion sequences reached about 30%, an adenovirus capable of expressing cre should be added to the culture well followed by further culture for more than 24 h; • (2) When the cell density was close to 90%, the cells were provided with fresh DMEM, at the same time, a compound (final concentration 10 nM) was added to the cells, followed by culture for 2 h, with an equal volume of DMSO as the negative control, and the cells treated with the addition of AICAR (3 mM) as the positive control; • (3) After sucking up the culture solution, the cells were lysed with 200 μL of a cell lysate (its formulation was given below), then the cells were scraped from the culture dish, ultrasonicated, and subjected to low temperature centrifugation at 20000 g for 10 min; • (4) The supernatant and an equal volume of 2*SDS solution (its formulation was given below) were mixed, and subjected to SDS-PAGE in a concentration of 8%, then the protein was transferred to PVDF membrane; each PVDF membrane was blocked with 25 mL of skim milk for 1 h, and then rinsed with TBST buffer (its formulation was given below) 3 times for 10 min each time; • (5) AMPKα subunit primary antibody (Cell Signaling Technology, #2532), primary antibody of phosphothreonine at the 172nd position of AMPK (Cell Signaling Technology, #2535), ACC primary antibody (Cell Signaling Technology, #3662), or primary antibody of phosphoserine at the 79th position of ACC (Cell Signaling Technology, #3661) was diluted in a ratio of 1:1000 with a primary antibody dilution (its formulation was given below), reacted with the PVDF membrane at room temperature for 12 h, and then rinsed 3 times with TBST buffer; • (6) A 1:1000 dilution of HRP-conjugated goat anti-rabbit secondary antibody (Jackson ImmunoResearch, 111-035-003) was added, reacted at room temperature for 1 h, and then rinsed 3 times with TBST buffer; • (7) The PVDF membrane was dried, reacted in an ECL mixture (WesternBright ECL HRP substrate, Advansta) and subjected to exposure with medical X-ray, developed, finally rinsed, dried, and then scanned to obtain data related to AMPK activation.\nThe formulations of reagents used were: • Cell lysate: 20 mM Tris-base, pH 7.5, 150 mM NaCl, 1 mM EDTA, 1 mM EGTA, 2.5 mM Sodium pyrophosphate, 1 mM β-glycerolphosphate, 1% Triton X-100 (v/v); • 2*SDS solution: 20% Glycerol (v/v), 4% SDS (m/v), 10% β-mecaptoethanol (v/v), 0.01% Bromophenol blue (m/v); • TBST buffer: 4.84% Tris-base (m/v), 8% NaCl (m/v), 0.1% Tween-20 (v/v); • Primary antibody dilution: TBST buffer containing 5% BSA (v/v)."}, "[1]": {"assay": "Liver microsome stability test, human liver microsome", "format": "in vitro ADME", "conditions": "microsomes, 0.5 mg protein/mL microsome, 1 μM compound, 37° C., NADPH, read-out: HLM 0.5 T1/2 (min), half life in human liver microsome", "procedure": "The experimental steps were as follows: • 1. Preparation of working solution • 1.1 Intermediate solution: 5 μL of a 10 mM stock solution of sample or control was taken out, and diluted with 495 μl of methanol (Conc.: 100 μM, 99% MeOH). • 1.2 Working solution: 50 μL of the intermediate solution was taken out, and diluted with 450 μL of a 100 mM potassium phosphate buffer (Conc.: 10 μM, 9.9% MeOH). • 2. Preparation of NADPH cofactor\nAn appropriate amount of NADPH powder was weighed, and dissolved with a MgCl2 (10 mM) solution. • 3. Liver microsome • 3.1 Liver microsome information\n• 3.2 Preparation: a microsome working solution with an appropriate concentration was prepared by using a 100 mM potassium phosphate buffer. • 4. Stop solution\nGlacial acetonitrile, comprising 100 ng/ml Tolbutamide and 100 ng/ml Labetalol as internal standards. • 5. Experimental procedures • 5.1 10 μL of the working solution of sample or control was added per well to all plates (T0, T5, T10, T20, T30, T60, NCF60), except for the blank group; • 5.2 80 μL of the working solution of microsome was added per well to all plates, followed by incubation for 10 min at 37° C.; • 5.3 10 μL of a 100 mM potassium phosphate buffer was added per well to NCF60, followed by incubation at 37° C. and starting timer 1;\n• 5.4 After preheating, 10 μL of NADPH was added per well to each plate, and reaction was started;\nFinal concentration of each component in the incubation medium:\n• 5.6 300 μL of the stop solution was added per well to stop the reaction; • 5.7 The system was shaken for about 10 min; • 5.8 The samples were centrifuged (4000 rpm) at 4° C. for 20 min; • 5.9 To 8 new 96-well plates, 300 μL of HPLC water was added per well, then 100 μL of the supernatant was added, mixed and subjected to LC/MS/MS.\nIn the above table, HLM 0.5 T1/2 (min) refers to half life (min) of compounds in human liver microsome, DLM 0.5 T1/2 (min) refers to half life (min) of compounds in Beagle dog liver microsome."}}, "data": [{"smiles": "Cc1n(CCCCCCCCCCCC(F)(F)C(F)(F)C(F)(F)C(F)(F)C(F)(F)F)cc[n+]1Cc1c(Cl)cccc1Cl.[Cl-]", "note": "[IB-33]", "values": [{"measurement": "Degree of AMPK activation, p-ACC/ACC", "setting": "AMPK", "result": 0.94}, {"measurement": "Degree of AMPK activation, p-AMPKα/AMPK", "setting": "AMPK", "result": 0.54}, {"measurement": "half-life at 1 μM", "setting": "[1]", "result": "> 145", "unit": "min"}]}]}
